The test deals with CD2F1 mice, ip Colon 26 adenocarcinoma, median survival T/C. Put plainly: NCI In Vivo Anticancer Drug Screen. Data for tumor model Colon 26 Adenocarcinoma (intraperitoneal) in CD2F1 (CDF1) mice. The note with it: endpoint: median survival time, higher = longer survival. As for the experimental part:
The antitumor activity of compounds was measured in mice bearing transplantable tumors. Survival or tumor size were measured and the results are expressed as the measurement made in the treated group (T) divided by the measurement made in the vehicle treated control group (C). The tumor model used in this assay is Colon 26 Adenocarcinoma (intraperitoneal) in CD2F1 (CDF1) mice

Setting [1] is: dose: 16.0 mg/kg/injection, schedule: Q01DX009 (ip), vehicle: acid diluted with saline.
Setting [2] is: dose: 25.0 mg/kg/injection, schedule: Q04DX003 (ip), vehicle: Klucel (hydroxypropylcellulose) (HPC).
[3] abbreviates: dose: 50.0 mg/kg/injection, schedule: Q04DX003 (ip), vehicle: Klucel (hydroxypropylcellulose) (HPC).
Setting [4] is: dose: 100.0 mg/kg/injection, schedule: Q04DX003 (ip), vehicle: Klucel (hydroxypropylcellulose) (HPC).
Setting [5] is: dose: 25.0 mg/kg/injection, schedule: Q04DX003 (ip), vehicle: saline with Tween-80.
The mark [6] stands for this setting: dose: 50.0 mg/kg/injection, schedule: Q04DX003 (ip), vehicle: saline with Tween-80.
[7] abbreviates: dose: 200.0 mg/kg/injection, schedule: Q04DX003 (ip), vehicle: saline with Tween-80.
[8] abbreviates: dose: 0.5 mg/kg/injection, schedule: Q04DX003 (ip), vehicle: Klucel (hydroxypropylcellulose) (HPC).
The mark [9] stands for this setting: dose: 1.0 mg/kg/injection, schedule: Q04DX003 (ip), vehicle: Klucel (hydroxypropylcellulose) (HPC).
The mark [10] stands for this setting: dose: 2.0 mg/kg/injection, schedule: Q04DX003 (ip), vehicle: Klucel (hydroxypropylcellulose) (HPC).
Where [11] appears, read: dose: 4.0 mg/kg/injection, schedule: Q04DX003 (ip), vehicle: Klucel (hydroxypropylcellulose) (HPC).

SMILES strings stand for the structures. Toxic doses and inconclusive results are not listed.

Take `CC1(C)CC23C4COC(=O)C2CCC1C3CC4=O` (stereo not given): the T/C (dose: 36.0 mg/kg/injection, schedule: Q04DX003 (ip), vehicle: DMSO) is 99 % of control; the T/C (dose: 62.5 mg/kg/injection, schedule: Q04DX002 (ip), vehicle: saline with Tween-80) is 109 % of control; the T/C (dose: 72.0 mg/kg/injection, schedule: Q04DX003 (ip), vehicle: DMSO) was 93 % of control; the T/C (dose: 125.0 mg/kg/injection, schedule: Q04DX002 (ip), vehicle: saline with Tween-80) is 91 % of control; the T/C (dose: 144.0 mg/kg/injection, schedule: Q04DX003 (ip), vehicle: DMSO) was 94 % of control.

In the case of `CCCNCCNc1ccc(NCCNCCC)c2c1C(=O)c1ccccc1C2=O`, the T/C runs as follows: (dose: 4.0 mg/kg/injection, schedule: Q01DX009 (ip), vehicle: acid diluted with saline) 106 % of control; (dose: 8.0 mg/kg/injection, schedule: Q01DX009 (ip), vehicle: acid diluted with saline) 98 % of control; under setting [1], 100 % of control.

`Clc1ccc(C2SC=Cc3ccccc32)cc1` (stereo not given): the T/C runs as follows: (dose: 3.12 mg/kg/injection, schedule: Q04DX002 (ip), vehicle: Klucel (hydroxypropylcellulose) (HPC)) 105 % of control; under setting [2], 99 % of control; under setting [3], 103 % of control; (dose: 62.5 mg/kg/injection, schedule: Q04DX002 (ip), vehicle: Klucel (hydroxypropylcellulose) (HPC)) 100 % of control; under setting [4], 97 % of control; (dose: 125.0 mg/kg/injection, schedule: Q04DX002 (ip), vehicle: Klucel (hydroxypropylcellulose) (HPC)) 98 % of control. The T/C (dose: 200.0 mg/kg/injection, schedule: Q04DX003 (ip), vehicle: Klucel (hydroxypropylcellulose) (HPC)) is 105 % of control; the T/C (dose: 250.0 mg/kg/injection, schedule: Q04DX002 (ip), vehicle: Klucel (hydroxypropylcellulose) (HPC)) was 96 % of control; the T/C (dose: 500.0 mg/kg/injection, schedule: Q04DX002 (ip), vehicle: Klucel (hydroxypropylcellulose) (HPC)) is 100 % of control.

For the molecule `OC(CBr)C(O)C(O)C(O)CBr` (stereo not given), the T/C runs as follows: under setting [5], 114 % of control; under setting [3], 107 % of control; under setting [6], 102 % of control; under setting [4], 117 % of control; (dose: 100.0 mg/kg/injection, schedule: Q04DX003 (ip), vehicle: saline with Tween-80) 96 % of control; under setting [7], 102 % of control. The T/C is 114 % of control (dose: 400.0 mg/kg/injection, schedule: Q04DX003 (ip), vehicle: saline with Tween-80) and 163 % of control (dose: 800.0 mg/kg/injection, schedule: Q04DX003 (ip), vehicle: Klucel (hydroxypropylcellulose) (HPC)).

Consider `C[C@]12CCC(=O)C=C1CC[C@@H]1[C@@H]2[C@@H](O)C[C@@]2(C)[C@H]1CC[C@]2(O)C(=O)CO`, for which the T/C reads like this: (dose: 40.0 mg/kg/injection, schedule: Q04DX003 (ip), vehicle: Klucel (hydroxypropylcellulose) (HPC)) 102 % of control; (dose: 80.0 mg/kg/injection, schedule: Q04DX003 (ip), vehicle: Klucel (hydroxypropylcellulose) (HPC)) 100 % of control; (dose: 160.0 mg/kg/injection, schedule: Q04DX003 (ip), vehicle: Klucel (hydroxypropylcellulose) (HPC)) 102 % of control; (dose: 320.0 mg/kg/injection, schedule: Q04DX003 (ip), vehicle: Klucel (hydroxypropylcellulose) (HPC)) 102 % of control; (dose: 640.0 mg/kg/injection, schedule: Q04DX003 (ip), vehicle: Klucel (hydroxypropylcellulose) (HPC)) 96 % of control.

Turning to `O=C1c2ccccc2C(=O)c2c(NCCCNCCO)ccc(NCCCNCCO)c21`, the T/C runs as follows: under setting [1], 107 % of control; (dose: 32.0 mg/kg/injection, schedule: Q01DX009 (ip), vehicle: acid diluted with saline) 111 % of control; (dose: 64.0 mg/kg/injection, schedule: Q01DX009 (ip), vehicle: acid diluted with saline) 123 % of control.

`CNc1nc2c(N)ncnc2n1C1OC(CO)C(O)C1O` (stereo not given): the T/C was 92 % of control (dose: 0.78 mg/kg/injection, schedule: Q04DX002 (ip), vehicle: saline); 93 % of control (dose: 1.56 mg/kg/injection, schedule: Q04DX002 (ip), vehicle: saline); 92 % of control (dose: 3.13 mg/kg/injection, schedule: Q04DX002 (ip), vehicle: saline); 96 % of control (dose: 6.25 mg/kg/injection, schedule: Q04DX002 (ip), vehicle: saline); 102 % of control (dose: 12.5 mg/kg/injection, schedule: Q04DX002 (ip), vehicle: saline); 96 % of control (dose: 25.0 mg/kg/injection, schedule: Q04DX002 (ip), vehicle: saline).

As to `Nc1ncnc2c1ccn2C1OC(CO)C(O)C1O` (stereo not given), the T/C reads like this: under setting [8], 98 % of control; under setting [9], 119 % of control; under setting [10], 118 % of control; under setting [11], 115 % of control.

Consider `CC(C)CCCCCCCCCCCCC(=O)NCC(=O)NC1C(O)C(O)C(Nc2ncnc3nc[nH]c23)OC1C(O)CO` (stereo not given), for which the T/C reads like this: under setting [8], 91 % of control; under setting [9], 97 % of control; under setting [10], 101 % of control; under setting [11], 103 % of control.

Take `COc1cccc2c1C(=O)c1c(O)c3c(c(O)c1C2=O)C[C@@](O)(C(=O)CO)C[C@@H]3OC1CC([N+](C)(C)C)C(O)C(C)O1` (stereo not given in full): the T/C was 102 % of control (dose: 5.4 mg/kg/injection, schedule: Q04DX003 (ip), vehicle: water); 103 % of control (dose: 9.0 mg/kg/injection, schedule: Q04DX003 (ip), vehicle: water); 96 % of control (dose: 15.0 mg/kg/injection, schedule: Q04DX003 (ip), vehicle: water); 115 % of control (dose: 25.0 mg/kg/injection, schedule: Q04DX003 (ip), vehicle: water).

On to `NNC(=O)c1ccncc1`, for which the T/C was 103 % of control (dose: 72.0 mg/kg/injection, schedule: Q04DX002 (ip), vehicle: saline) and 102 % of control (dose: 144.0 mg/kg/injection, schedule: Q04DX002 (ip), vehicle: saline).

Regarding `NC(Cc1ccc(N(CCCl)CCCl)cc1)C(=O)O` (stereo not given), the T/C by setting is: (dose: 2.0 mg/kg/injection, schedule: Q04DX002 (ip), vehicle: Klucel (hydroxypropylcellulose) (HPC)) 168 % of control; (dose: 4.0 mg/kg/injection, schedule: Q04DX002 (ip), vehicle: Klucel (hydroxypropylcellulose) (HPC)) 253 % of control; (dose: 8.0 mg/kg/injection, schedule: Q04DX002 (ip), vehicle: Klucel (hydroxypropylcellulose) (HPC)) 245 % of control; (dose: 16.0 mg/kg/injection, schedule: Q04DX002 (ip), vehicle: Klucel (hydroxypropylcellulose) (HPC)) 156 % of control.

In the case of `Cc1ccc(C(=O)[O][Hg][CH2]C2COC([CH2][Hg][O]C(=O)c3ccc(C)cc3)CO2)cc1` (stereo not given), the T/C was 104 % of control (dose: 12.5 mg/kg/injection, schedule: Q04DX003 (ip), vehicle: Klucel (hydroxypropylcellulose) (HPC)) and 92 % of control under setting [2].

In the case of `C=C/C(C)=C/[C@H](C)C(=O)C[C@H](O)CC1CC(=O)NC(=O)C1`, the T/C is 97 % of control (dose: 6.25 mg/kg/injection, schedule: Q04DX003 (ip), vehicle: saline with Tween-80); 100 % of control (dose: 12.5 mg/kg/injection, schedule: Q04DX003 (ip), vehicle: saline with Tween-80); 108 % of control under setting [5]; 109 % of control under setting [6]; 121 % of control under setting [7].

Turning to `CCC[CH2][Hg][Cl]`, the T/C (dose: 3.12 mg/kg/injection, schedule: Q04DX003 (ip), vehicle: Klucel (hydroxypropylcellulose) (HPC)) is 98 % of control and the T/C (dose: 6.25 mg/kg/injection, schedule: Q04DX003 (ip), vehicle: Klucel (hydroxypropylcellulose) (HPC)) is 93 % of control.

`CC(=O)OCC1(C)C(O)CCC2(C)C1CCC1CC3CC12CCC3(O)CO` (stereo not given): the T/C reads like this: (dose: 12.5 mg/kg/injection, schedule: Q04DX002 (ip), vehicle: distilled water + Tween-80) 103 % of control; (dose: 25.0 mg/kg/injection, schedule: Q04DX002 (ip), vehicle: distilled water + Tween-80) 111 % of control; (dose: 50.0 mg/kg/injection, schedule: Q04DX002 (ip), vehicle: distilled water + Tween-80) 95 % of control; (dose: 100.0 mg/kg/injection, schedule: Q04DX002 (ip), vehicle: distilled water + Tween-80) 104 % of control.

Source of the values: PubChem BioAssay AID210 (DTP/NCI, 2004).
